Among the data in publication PMC6832265 (Molecules, 2019) are IC50 values, retold here.

The experiment has as its target T1, Tdp1 (Homo sapiens, UniProt Q9NUW8).
T1 construct: made in house; host or cells: Escherichia coli
Briefly: Real-time detection of Tdp1 activity (5'-FAM/3'-BHQ1 oligonucleotide biosensor). It is filed as biochemical. Particulars: 1.5 nM Tdp1, 50 nM oligonucleotide substrate, 26 °C. From the text:
We first studied the inhibition potency of our compounds to Tdp1 by using a real-time oligonucleotide biosensor assay that we have previously developed. The assay was based on the ability of Tdp1 to remove the fluorescence quencher from the 3’-end of DNA. The substrate is a 16-mer single-stranded oligonucleotide containing both a 5’-FAM fluorophore and a 3’-BHQ1 quencher.
A fluorophore quencher-coupled DNA-biosensor for real-time measurement of Tdp1 cleavage activity was recently designed in our laboratory. The biosensor is a 16-mer single-stranded oligonucleotide containing both a 5’-FAM fluorophore donor and a quenching 3’-BHQ1 moiety.
Recombinant protein Tdp1 was expressed in EsCherichia coli (pET 16B plasmid containing Tdp1 cDNA provided by Dr. K.W. Caldecott, University of Sussex, United Kingdom) and isolated as described. The reaction mixture in a final volume 200 μL contained Tdp1 reaction buffer (50 mM Tris-HCl, 50 mM NaCl, 7 mM β-mercaptoethanol), 50 nM oligonucleotide substrate, and varied concentrations of potential inhibitor. Purified Tdp1 was added in a final concentration of 1.5 nM.
The reaction mixtures were incubated at a constant temperature of 26 °C in a POLARstar OPTIMA fluorimeter, BMG LABTECH, GmbH, to measure fluorescence intensity every minute (Ex485/Em520 nm). Tdp1 inhibition was calculated by comparing the rate of increase in fluorescence of the biosensor in the presence of the compound to that of DMSO (1.5%) control wells. The measurements were carried out in at least two independent experiments. IC50 values were determined using a six-point concentration response curve. The data were imported into the MARS Data Analysis 2.0 program (BMG LABTECH) and the slope during the linear phase (data from 0 to 7 min) was calculated.

T1 sequence (Q9NUW8 whole entry): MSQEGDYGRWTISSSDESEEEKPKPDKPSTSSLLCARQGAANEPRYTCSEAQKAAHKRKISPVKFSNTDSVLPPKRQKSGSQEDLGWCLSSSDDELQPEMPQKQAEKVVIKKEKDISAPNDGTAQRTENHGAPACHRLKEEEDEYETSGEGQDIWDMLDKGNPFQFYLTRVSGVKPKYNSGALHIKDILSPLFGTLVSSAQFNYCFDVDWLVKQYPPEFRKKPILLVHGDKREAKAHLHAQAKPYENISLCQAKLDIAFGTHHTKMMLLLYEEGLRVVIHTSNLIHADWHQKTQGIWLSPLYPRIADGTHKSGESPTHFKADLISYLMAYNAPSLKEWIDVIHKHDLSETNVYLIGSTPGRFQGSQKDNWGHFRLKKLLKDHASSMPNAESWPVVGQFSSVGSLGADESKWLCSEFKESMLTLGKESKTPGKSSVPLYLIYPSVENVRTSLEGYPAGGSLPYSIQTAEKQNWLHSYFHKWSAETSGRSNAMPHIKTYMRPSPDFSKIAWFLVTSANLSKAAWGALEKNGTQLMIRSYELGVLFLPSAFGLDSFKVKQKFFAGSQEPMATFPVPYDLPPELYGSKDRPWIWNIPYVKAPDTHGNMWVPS

Usually IC50 stands for the concentration that inhibits the measured activity by half. `CC(=O)C1=C(O)C=C2Oc3c(-c4csc(N/N=C/c5ccc(C)s5)n4)c(O)c(C)c(O)c3[C@@]2(C)C1=O` [(+)-16e, (2R)-4-Acetyl-5,11,13-trihydroxy-2,12-dimethyl-10-{2-[(E)-2-[(5-methylthiophen-2-yl)methylidene]hydrazin-1-yl]-1,3-thiazol-4-yl}-8-oxatricyclo[7.4.0.0^2,7]trideca-1(9),4,6,10,12-pentaen-3-one] gave a concentration for half-maximal inhibition (IC50) of 91 ± 7 nM. Under `CC(=O)C1=C(O)C=C2Oc3c(-c4csc(N/N=C/c5cccnc5)n4)c(O)c(C)c(O)c3[C@@]2(C)C1=O` [(+)-16c, 3-[(1E)-(2-{4-[(1R)-12-Acetyl-3,5,11-trihydroxy-1,4-dimethyl-13-oxo-8-oxatricyclo[7.4.0.0^2,7]trideca-2(7),3,5,9,11-pentaen-6-yl]-1,3-thiazol-2-yl}hydrazin-1-ylidene)methyl]pyridin-1-ium bromide] stands 353 ± 17 nM.

Take `COc1ccc(/C=N/Nc2nc(-c3c(O)c(C)c(O)c4c3OC3=CC(O)=C(C(C)=O)C(=O)[C@]34C)cs2)cc1CSc1cc(C)ccc1C(C)(C)C` [(−)-17g, (2S)-4-Acetyl-10-{2-[(E)-2-[(3-{[(2-tert-butyl-5-methylphenyl)sulfanyl]methyl}-4-methoxyphenyl)methylidene]hydrazin-1-yl]-1,3-thiazol-4-yl}-5,11,13-trihydroxy-2,12-dimethyl-8-oxatricyclo[7.4.0.0^2,7]trideca-1(9),4,6,10,12-pentaen-3-one]: the IC50 worked out at 94 ± 20 nM.

Take `CC(=O)C1=C(O)C=C2Oc3c(-c4csc(N/N=C/c5ccc([N+](=O)[O-])s5)n4)c(O)c(C)c(O)c3[C@]2(C)C1=O` [(−)-16d, (2S)-4-Acetyl-5,11,13-trihydroxy-2,12-dimethyl-10-{2-[(E)-2-[(5-nitrothiophen-2-yl)methylidene]hydrazin-1-yl]-1,3-thiazol-4-yl}-8-oxatricyclo[7.4.0.0^2,7]trideca-1(9),4,6,10,12-pentaen-3-one]: the IC50 was determined as 142 ± 4 nM.

`CC(=O)C1=C(O)C=C2Oc3c(-c4csc(N/N=C/c5cc(Br)cs5)n4)c(O)c(C)c(O)c3[C@@]2(C)C1=O` [(+)-16h, (2R)-4-Acetyl-5,11,13-trihydroxy-2,12-dimethyl-10-{2-[(E)-2-[(4-bromothiophen-2-yl)methylidene]hydrazin-1-yl]-1,3-thiazol-4-yl}-8-oxatricyclo[7.4.0.0^2,7]trideca-1(9),4,6,10,12-pentaen-3-one] returned an IC50 of 70 ± 18 nM.

Consider `CC(=O)C1=C(O)C=C2Oc3c(-c4csc(N/N=C/c5cccs5)n4)c(O)c(C)c(O)c3[C@@]2(C)C1=O` [(+)-16g, (2R)-4-Acetyl-5,11,13-trihydroxy-2,12-dimethyl-10-{2-[(E)-2-[(thiophen-2-yl)methylidene] hydrazin-1-yl]-1,3-thiazol-4-yl}-8-oxatricyclo[7.4.0.0^2,7]trideca-1(9),4,6,10,12-pentaen-3-one], for which the IC50 came to 52 ± 18 nM. Under `COc1ccc(/C=N/Nc2nc(-c3c(O)c(C)c(O)c4c3OC3=CC(O)=C(C(C)=O)C(=O)[C@]34C)cs2)cc1COc1ccc(F)cc1` [(−)-17a, (2S)-4-Acetyl-10-{2-[(E)-2-({3-[(4-fluorophenoxy)methyl]-4-methoxyphenyl}methylidene)hydrazin-1-yl]-1,3-thiazol-4-yl}-5,11,13-trihydroxy-2,12-dimethyl-8-oxatricyclo[7.4.0.0^2,7]trideca-1(9),4,6,10,12-pentaen-3-one] stands 54 ± 3 nM; under `COc1ccc(/C=N/Nc2nc(-c3c(O)c(C)c(O)c4c3OC3=CC(O)=C(C(C)=O)C(=O)[C@]34C)cs2)cc1CN1CCN(c2ccc(F)cc2)CC1` [(−)-17i, (2S)-4-Acetyl-10-{2-[(E)-2-[(3-{[4-(4-fluorophenyl)piperazin-1-yl]methyl}-4-methoxyphenyl)methylidene]hydrazin-1-yl]-1,3-thiazol-4-yl}-5,11,13-trihydroxy-2,12-dimethyl-8-oxatricyclo[7.4.0.0^2,7]trideca-1(9),4,6,10,12-pentaen-3-one], 59 ± 5 nM; under `CC(=O)C1=C(O)C=C2Oc3c(-c4csc(N/N=C/c5ccc[nH]5)n4)c(O)c(C)c(O)c3[C@@]2(C)C1=O` [(+)-16m, (2R)-4-Acetyl-5,11,13-trihydroxy-2,12-dimethyl-10-{2-[(E)-2-[(1H-pyrrol-2-yl)methylidene] hydrazin-1-yl]-1,3-thiazol-4-yl}-8-oxatricyclo[7.4.0.0^2,7]trideca-1(9),4,6,10,12-pentaen-3-one], 188 ± 3 nM. For `COc1ccc(/C=N/Nc2nc(-c3c(O)c(C)c(O)c4c3OC3=CC(O)=C(C(C)=O)C(=O)[C@]34C)cs2)cc1CN1CCN(c2ccccc2OC)CC1` [(−)-17j, (2S)-4-Acetyl-10-{2-[(E)-2-[(3-{[4-(2-methoxyphenyl)piperazin-1-yl]methyl}-4-methoxyphenyl)methylidene]hydrazin-1-yl]-1,3-thiazol-4-yl}-5,11,13-trihydroxy-2,12-dimethyl-8-oxatricyclo[7.4.0.0^2,7]trideca-1(9),4,6,10,12-pentaen-3-one] the value was 71 ± 15 nM; for `CC(=O)C1=C(O)C=C2Oc3c(-c4csc(N/N=C/c5sccc5C)n4)c(O)c(C)c(O)c3[C@]2(C)C1=O` [(−)-16i, (2S)-4-Acetyl-5,11,13-trihydroxy-2,12-dimethyl-10-{2-[(E)-2-[(3-methylthiophen-2-yl)methylidene]hydrazin-1-yl]-1,3-thiazol-4-yl}-8-oxatricyclo[7.4.0.0^2,7]trideca-1(9),4,6,10,12-pentaen-3-one], 121 ± 25 nM; for `CC(=O)C1=C(O)C=C2Oc3c(-c4csc(N/N=C/c5sccc5C)n4)c(O)c(C)c(O)c3[C@@]2(C)C1=O` [(+)-16i, (2R)-4-Acetyl-5,11,13-trihydroxy-2,12-dimethyl-10-{2-[(E)-2-[(3-methylthiophen-2-yl)methylidene]hydrazin-1-yl]-1,3-thiazol-4-yl}-8-oxatricyclo[7.4.0.0^2,7]trideca-1(9),4,6,10,12-pentaen-3-one], 72 ± 3 nM. `COc1ccc(/C=N/Nc2nc(-c3c(O)c(C)c(O)c4c3OC3=CC(O)=C(C(C)=O)C(=O)[C@]34C)cs2)cc1COc1ccc(Cl)c(C)c1` [(−)-17h, (2S)-4-Acetyl-10-{2-[(E)-2-({3-[(4-chloro-3-methylphenoxy)methyl]-4-methoxyphenyl}methylidene)hydrazin-1-yl]-1,3-thiazol-4-yl}-5,11,13-trihydroxy-2,12-dimethyl-8-oxatricyclo[7.4.0.0^2,7]trideca-1(9),4,6,10,12-pentaen-3-one] returned an IC50 of 48 ± 2 nM.
